# In patent publication US11661426B2, “Imidazole-containing inhibitors of ALK2 kinase” (BioCryst Pharmaceuticals, Inc., priority 2017, dated 2023):
# Target: ALK2 (Homo sapiens (Human), UniProt Q04771)
# Assay: ALK2 inhibition, LanthaScreen Eu Kinase Binding Assay (ThermoFisher Scientific / Life Technologies)
# Conditions: read-out: Measured Ki (IC50) Value for Compounds: IC50
# Procedure: Biochemical assays to measure the inhibitory effects of the compounds were performed by ThermoFisher Scientific (Life Technologies). ALK2 inhibition was tested using LanthaScreen™ Eu Kinase Binding Assay screening protocol.
# Chain of ALK2 (Q04771 21-509): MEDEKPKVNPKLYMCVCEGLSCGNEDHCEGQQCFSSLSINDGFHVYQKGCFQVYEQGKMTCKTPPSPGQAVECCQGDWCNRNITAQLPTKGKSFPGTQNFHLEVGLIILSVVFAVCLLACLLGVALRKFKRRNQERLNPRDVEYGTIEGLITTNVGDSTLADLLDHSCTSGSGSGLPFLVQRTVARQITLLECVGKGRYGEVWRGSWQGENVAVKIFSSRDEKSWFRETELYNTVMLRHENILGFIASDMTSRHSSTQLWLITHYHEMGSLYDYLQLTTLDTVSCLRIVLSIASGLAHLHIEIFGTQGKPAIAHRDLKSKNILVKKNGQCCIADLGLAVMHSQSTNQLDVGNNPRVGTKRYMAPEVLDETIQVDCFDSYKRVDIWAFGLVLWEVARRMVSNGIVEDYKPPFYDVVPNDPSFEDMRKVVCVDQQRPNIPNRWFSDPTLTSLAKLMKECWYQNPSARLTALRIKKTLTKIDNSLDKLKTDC
row,SMILES,IC50
1,"COc1cc(-n2cnc(Nc3nc(N4CCCC4)c4ncsc4n3)c2)cc(OC)c1OC [Compound 233b, 7-(pyrrolidin-1-yl)-N-(1-(3,4,5-trimethoxyphenyl)-1H-imidazol-4-yl)thiazolo[5,4-d]pyrimidin-5-amine]",100 to 1000 nM
2,"COc1cc(-n2cnc(Nc3nc(N4CCC[C@H]4CO)c4cccn4n3)c2)cc(C(C)=O)c1OC [Compound 234e, (S)-1-(5-(4-((4-(2-(hydroxymethyl)pyrrolidin-1-yl)pyrrolo[2,1-f][1,2,4]triazin-2-yl)amino)-1H-imidazol-1-yl)-2,3-dimethoxyphenyl)ethanone]",100 to 1000 nM
3,"COc1cc(-n2cnc(Nc3nc(N4CCN(C)CC4)nc4ccoc34)c2)cc(OC)c1OC [Compound 235a, 2-(4-methylpiperazin-1-yl)-N-(1-(3,4,5-trimethoxyphenyl)-1H-imidazol-4-yl)furo[3,2-d]pyrimidin-4-amine]",< 100 nM
4,"COc1cc(-n2cnc(Nc3nc(N4CC[C@@H](O)C4)nc4ccoc34)c2)cc(OC)c1OC [Compound 236a, (R)-1-(4-((1-(3,4,5-trimethoxyphenyl)-1H-imidazol-4-yl)amino)furo[3,2-d]pyrimidin-2-yl)pyrrolidin-3-ol]",< 100 nM
5,"COc1cc(-n2cnc(Nc3nc(N4CC[C@H](O)C4)nc4ccoc34)c2)cc(OC)c1OC [Compound 237a, (S)-1-(4-((1-(3,4,5-trimethoxyphenyl)-1H-imidazol-4-yl)amino)furo[3,2-d]pyrimidin-2-yl)pyrrolidin-3-ol]",< 100 nM
6,"COc1cc(-n2cnc(Nc3nc(N4CCC[C@@H]4CO)nn4cccc34)c2)cc(OC)c1OC [Compound 238a, (R)-(1-(4-((1-(3,4,5-trimethoxyphenyl)-1H-imidazol-4-yl)amino)pyrrolo[2,1-f][1,2,4]triazin-2-yl)pyrrolidin-2-yl)methanol]",< 100 nM
7,"COc1cc(-n2cnc(Nc3nc4c(c(N5CCC[C@H]5CO)n3)CN(C(=O)C3CC3)CC4)c2)cc(OC)c1OC [Compound 239a, (S)-cyclopropyl(4-(2-(hydroxymethyl)pyrrolidin-1-yl)-2-((1-(3,4,5-trimethoxyphenyl)-1H-imidazol-4-yl)amino)-7,8-dihydropyrido[4,3-d]pyrimidin-6(5H)-yl)methanone]",< 100 nM
8,"COc1cc(-n2cnc(Nc3nc4c(c(N5CCC[C@H]5CO)n3)CN(C(=O)[C@@H]3CCC(=O)N3)CC4)c2)cc(OC)c1OC [Compound 240a, (S)-5-(4-((S)-2-(hydroxymethyl)pyrrolidin-1-yl)-2-((1-(3,4,5-trimethoxyphenyl)-1H-imidazol-4-yl)amino)-5,6,7,8-tetrahydropyrido[4,3-d]pyrimidine-6-carbonyl)pyrrolidin-2-one]",< 100 nM
9,"COc1cc(-n2cnc(Nc3nc4c(c(N5CCC[C@H]5CO)n3)CN(C(=O)c3ccc(C#N)cc3)CC4)c2)cc(OC)c1OC [Compound 241a, (S)-4-(4-(2-(hydroxymethyl)pyrrolidin-1-yl)-2-((1-(3,4,5-trimethoxyphenyl)-1H-imidazol-4-yl)amino)-5,6,7,8-tetrahydropyrido[4,3-d]pyrimidine-6-carbonyl)benzonitrile]",< 100 nM
10,"COc1cc(OC)cc(-n2cnc(Nc3nc(N4CCC[C@H]4CO)c4cccn4n3)c2)c1 [Compound 242a, (S)-(1-(2-((1-(3,5-dimethoxyphenyl)-1H-imidazol-4-yl)amino)pyrrolo[2,1-f][1,2,4]triazin-4-yl)pyrrolidin-2-yl)methanol]",100 to 1000 nM
11,"COc1ccc(-n2cnc(Nc3nc(N4CCC[C@H]4CO)c4cccn4n3)c2)cc1OC [Compound 243a, (S)-(1-(2-((1-(3,4-dimethoxyphenyl)-1H-imidazol-4-yl)amino)pyrrolo[2,1-f][1,2,4]triazin-4-yl)pyrrolidin-2-yl)methanol]",100 to 1000 nM

# The next lines start with the values.
row,IC50,SMILES
1,< 100 nM,"COc1cc(-n2cnc(Nc3nc(N4CCC[C@H]4CO)c4ccc(OC(C)C)cc4n3)c2)cc(OC)c1OC [Compound 244b, (S)-(1-(7-isopropoxy-2-((1-(3,4,5-trimethoxyphenyl)-1H-imidazol-4-yl)amino)quinazolin-4-yl)pyrrolidin-2-yl)methanol]"
2,< 100 nM,"COc1cc(-n2cnc(Nc3nc(N4CCC[C@H]4C(N)=O)nn4c(CN5CCNCC5)ccc34)c2)cc(OC)c1OC [Compound 245c, (S)-1-(7-(piperazin-1-ylmethyl)-4-((1-(3,4,5-trimethoxyphenyl)-1H-imidazol-4-yl)amino)pyrrolo[2,1-f][1,2,4]triazin-2-yl)pyrrolidine-2-carboxamide]"
3,< 100 nM,"COc1cc(-n2cnc(Nc3nc(N4CC[C@@H](CO)C4)nc4ccoc34)c2)cc(OC)c1OC [Compound 246a, (R)-(1-(4-((1-(3,4,5-trimethoxyphenyl)-1H-imidazol-4-yl)amino)furo[3,2-d]pyrimidin-2-yl)pyrrolidin-3-yl)methanol]"
4,< 100 nM,"COc1cc(-n2cnc(Nc3nc(N4CCC[C@H]4C(=O)NC4CC4)nc4ccoc34)c2)cc(OC)c1OC [Compound 247b, (S)—N-cyclopropyl-1-(4-((1-(3,4,5-trimethoxyphenyl)-1H-imidazol-4-yl)amino)furo[3,2-d]pyrimidin-2-yl)pyrrolidine-2-carboxamide]"
5,< 100 nM,"COc1cc(-n2cnc(Nc3nc(N4CCC[C@H]4C(=O)NCC4CC4)nc4ccoc34)c2)cc(OC)c1OC [Compound 248a, (S)—N-(cyclopropylmethyl)-1-(4-((1-(3,4,5-trimethoxyphenyl)-1H-imidazol-4-yl)amino)furo[3,2-d]pyrimidin-2-yl)pyrrolidine-2-carboxamide]"
6,100 to 1000 nM,"COc1cc(Cl)cc(-n2cnc(Nc3nc(N4CCC[C@H]4CO)c4cccn4n3)c2)c1 [Compound 249d, (S)-(1-(2-((1-(3-chloro-5-methoxyphenyl)-1H-imidazol-4-yl)amino)pyrrolo[2,1-f][1,2,4]triazin-4-yl)pyrrolidin-2-yl)methanol]"
7,> 1000 nM,"COc1cc(-n2cnc(Nc3nc(N4CCC[C@H]4CO)c4cccn4n3)c2)ccc1Cl [Compound 250d, (S)-(1-(2-((1-(4-chloro-3-methoxyphenyl)-1H-imidazol-4-yl)amino)pyrrolo[2,1-f][1,2,4]triazin-4-yl)pyrrolidin-2-yl)methanol]"
8,< 100 nM,"COc1cc(-n2cnc(Nc3nc(N4CC[C@@H](N(C)C)C4)nc4ccoc34)c2)cc(OC)c1OC [Compound 251a, (R)-2-(3-(dimethylamino)pyrrolidin-1-yl)-N-(1-(3,4,5-trimethoxyphenyl)-1H-imidazol-4-yl)furo[3,2-d]pyrimidin-4-amine]"
9,< 100 nM,"CNC(=O)[C@@H]1CCCN1c1nc(Nc2cn(-c3cc(OC)c(OC)c(OC)c3)cn2)c2occc2n1 [Compound 252a, (S)—N-methyl-1-(4-((1-(3,4,5-trimethoxyphenyl)-1H-imidazol-4-yl)amino)furo[3,2-d]pyrimidin-2-yl)pyrrolidine-2-carboxamide]"
10,> 1000 nM,"COc1cc(-n2cnc(Nc3nc(N4CCC[C@H]4C(N)=O)nc4cnn(C)c34)c2)cc(OC)c1OC [Compound 253c, (S)-1-(1-methyl-7-((1-(3,4,5-trimethoxyphenyl)-1H-imidazol-4-yl)amino)-1H-pyrazolo[4,3-d]pyrimidin-5-yl)pyrrolidine-2-carboxamide]"
11,< 100 nM,"COc1cc(-n2cnc(Nc3nc(N4CCC[C@H]4CO)nc4c3CCN(CCC(N)=O)C4)c2)cc(OC)c1OC [Compound 254a, (S)-3-(2-(2-(hydroxymethyl)pyrrolidin-1-yl)-4-((1-(3,4,5-trimethoxyphenyl)-1H-imidazol-4-yl)amino)-5,6-dihydropyrido[3,4-d]pyrimidin-7(8H)-yl)propanamide]"
